Measurements published in ChEMBL document CHEMBL1122832, “4-substituted 5-[m-(trifluoromethyl)phenoxy]primaquine analogues as potential antimalarial agents” (1985).
“And” between values parts separate entries of the source, which are not always exact repeats. Identical values can stand only once.

Columns and labels:
Type in all cases: functional
Mus musculus [1] = experiment: Mean survival time of mice(Plasmodium berghei) at a dose of 40 mg/kg, total no. of mice = 5
Plasmodium cynomolgi [2] = experiment: Antimalarial activity against Plasmodium cynomolgi infected Rhesus monkeys (Macaca mulatta) at 1.0 mg/kg; relapses
Mus musculus [3] = experiment: Mean survival time of mice(Plasmodium berghei) at a dose of 5 mg/kg, total no. of mice = 5
Mus musculus [4] = experiment: Antimalarial activity against Plasmodium berghei yoelii in mice (Mus musculus) at a dose of 40 mg/kg administered by peroral and activity expressed as cures; 4/5; details: route oral
Mus musculus [5] = experiment: Antimalarial activity against Plasmodium berghei yoelii in mice (Mus musculus) at a dose of 40 mg/kg administered by subcutaneous and activity expressed as cures; 12/15
Mus musculus [6] = experiment: Mean survival time of mice(Plasmodium berghei) at a dose of 20 mg/kg, total no. of mice = 5
Mus musculus [7] = experiment: Antimalarial activity against Plasmodium berghei in mice (Mus musculus) at a dose of 160 mg/kg and activity expressed as number cures surviving 60 days
Mus musculus [8] = experiment: Antimalarial activity against Plasmodium berghei in mice (Mus musculus) at a dose of 80 mg/kg and activity expressed as number cures surviving 60 days
Mus musculus [9] = experiment: Antimalarial activity against Plasmodium berghei yoelii in mice (Mus musculus) at a dose of 2.5 mg/kg administered subcutaneously and activity expressed as cures; 0/5; details: route subcutaneous
Mus musculus [10] = experiment: Antimalarial activity against Plasmodium berghei in mice (Mus musculus) at a dose of 640 mg/kg and activity expressed as toxic deaths on days 2-5
Mus musculus [11] = experiment: Mean survival time of mice(Plasmodium berghei) at a dose of 10 mg/kg, total no. of mice = 5
Mus musculus [12] = experiment: Antimalarial activity against Plasmodium berghei yoelii in mice (Mus musculus) at a dose of 10 mg/kg administered subcutaneously and activity expressed as cures; 9/15; details: route subcutaneous
Plasmodium cynomolgi [13] = experiment: Antimalarial activity against Plasmodium cynomolgi infected Rhesus monkeys (Macaca mulatta) at 1.0 mg/kg;cured 0 of 2
Mus musculus [14] = experiment: Antimalarial activity against Plasmodium berghei yoelii in mice (Mus musculus) at a dose of 160 mg/kg administered subcutaneously and activity expressed as cures; 10/10; details: route subcutaneous
Mus musculus [15] = experiment: Antimalarial activity against Plasmodium berghei in mice (Mus musculus) at a dose of 320 mg/kg and activity expressed as number cures surviving 60 days
Mus musculus [16] = experiment: Antimalarial activity against Plasmodium berghei yoelii in mice (Mus musculus) at a dose of 2.5 mg/kg administered by peroral and activity expressed as cures; 0/5; details: route oral
Mus musculus [17] = experiment: Antimalarial activity against Plasmodium berghei yoelii in mice (Mus musculus) at a dose of 10 mg/kg administered perorally and activity expressed as cures; 0/15; details: route oral
Mus musculus [18] = experiment: Mean survival time of mice(Plasmodium berghei) at a dose of 160 mg/kg, total no. of mice = 5
Mus musculus [19] = experiment: Mean survival time of mice(Plasmodium berghei) at a dose of 640 mg/kg, total no. of mice = 5
Plasmodium cynomolgi [20] = experiment: Antimalarial activity against Plasmodium cynomolgi infected Rhesus monkeys (Macaca mulatta) at 0.316 mg/kg; cured 1 of 2
Mus musculus [21] = experiment: Antimalarial activity against Plasmodium berghei yoelii in mice (Mus musculus) at a dose of 40 mg/kg administered subcutaneously and activity expressed as cures; 9/10; details: route subcutaneous
Mus musculus [22] = experiment: Antimalarial activity against Plasmodium berghei yoelii in mice (Mus musculus) at a dose of 10 mg/kg administered by subcutaneous and activity expressed as cures; 8/10
Plasmodium cynomolgi [23] = experiment: Antimalarial activity as relapses in Plasmodium cynomolgi infected Rhesus monkeys (Macaca mulatta) at 0.1 mg/kg
Mus musculus [24] = experiment: Antimalarial activity against Plasmodium berghei yoelii in mice (Mus musculus) at a dose of 2.5 mg/kg administered by subcutaneous and activity expressed as cures; 1/5
Plasmodium cynomolgi [25] = experiment: Antimalarial activity against Plasmodium cynomolgi infected Rhesus monkeys (Macaca mulatta) at 0.1 mg/kg; cured 0 of 2
Mus musculus [26] = experiment: Antimalarial activity against Plasmodium berghei yoelii in mice (Mus musculus) at a dose of 160 mg/kg administered subcutaneously and activity expressed as cures; […]; details: route subcutaneous
Mus musculus [27] = experiment: Antimalarial activity against Plasmodium berghei in mice (Mus musculus) at a dose of 20 mg/kg and activity expressed as number cures surviving 60 days
Plasmodium cynomolgi [28] = experiment: Antimalarial activity against Plasmodium cynomolgi infected Rhesus monkeys (Macaca mulatta) at 0.316 mg/kg; relapses
Mus musculus [29] = experiment: Antimalarial activity against Plasmodium berghei in mice (Mus musculus) at a dose of 640 mg/kg and activity expressed as number cures surviving 60 days
Mus musculus [30] = experiment: Antimalarial activity against Plasmodium berghei in mice (Mus musculus) at a dose of 40 mg/kg and activity expressed as number cures surviving 60 days
Mus musculus [31] = experiment: Antimalarial activity against Plasmodium berghei yoelii in mice (Mus musculus) at a dose of 10 mg/kg administered by peroral and activity expressed as cures; 5/5; details: route oral
Plasmodium cynomolgi [32] = experiment: Antimalarial activity against Plasmodium cynomolgi infected Rhesus monkeys (Macaca mulatta) at 1.0 mg/kg; cured 2 of 2
Plasmodium cynomolgi [33] = experiment: Antimalarial activity against Plasmodium cynomolgi infected Rhesus monkeys (Macaca mulatta) at 0.1 mg/kg; cured 0 of 1
Plasmodium cynomolgi [34] = experiment: Antimalarial activity against Plasmodium cynomolgi infected Rhesus monkeys (Macaca mulatta) at 0.316 mg/kg dose; Cured 2 of 2
Mus musculus [35] = experiment: Antimalarial activity against Plasmodium berghei yoelii in mice (Mus musculus) at a dose of 160 mg/kg administered by subcutaneous and activity expressed as toxic
Mus musculus [36] = experiment: Antimalarial activity against Plasmodium berghei yoelii in mice (Mus musculus) at a dose of 2.5 mg/kg administered by subcutaneous and activity expressed as cures; 0/10
Mus musculus [37] = experiment: Antimalarial activity against Plasmodium berghei yoelii in mice (Mus musculus) at a dose of 10 mg/kg administered by peroral and activity expressed as cures; 3/10; details: route oral
Mus musculus [38] = experiment: Mean survival time of mice(Plasmodium berghei) at a dose of 320 mg/kg, total no. of mice = 5
Plasmodium cynomolgi [39] = experiment: Antimalarial activity against Plasmodium cynomolgi infected Rhesus monkeys (Macaca mulatta) at 1.0 mg/kg; cured 0 of 1
Mus musculus [40] = experiment: Antimalarial activity against Plasmodium berghei in mice (Mus musculus) at a dose of 64 mg/kg and activity expressed as toxic deaths on days 2-5
Mus musculus [41] = experiment: Antimalarial activity against Plasmodium berghei yoelii in mice (Mus musculus) at a dose of 2.5 mg/kg administered perorally and activity expressed as cures; 3/10; details: route oral
Mus musculus [42] = experiment: Antimalarial activity against Plasmodium berghei yoelii in mice (Mus musculus) at a dose of 40 mg/kg administered by subcutaneous and activity expressed as cures; 14/15
Mus musculus [43] = experiment: Antimalarial activity against Plasmodium berghei yoelii in mice (Mus musculus) at a dose of 40 mg/kg administered perorally and activity expressed as cures; details: route oral
Mus musculus [44] = experiment: Antimalarial activity against Plasmodium berghei yoelii in mice (Mus musculus) at a dose of 10 mg/kg administered by subcutaneous and activity expressed as cures; 10/15
Mus musculus [45] = experiment: Antimalarial activity against Plasmodium berghei yoelii in mice (Mus musculus) at a dose of 160 mg/kg administered subcutaneously and activity expressed as cures; details: route subcutaneous
Mus musculus [46] = experiment: Antimalarial activity against Plasmodium berghei yoelii in mice (Mus musculus) at a dose of 2.5 mg/kg and activity expressed as toxic
Plasmodium cynomolgi [47] = experiment: Antimalarial activity against Plasmodium cynomolgi in Rhesus monkeys (Macaca mulatta) at 0.316 mg/kg; cured 0 of 2
Plasmodium cynomolgi [48] = experiment: Antimalarial activity against Plasmodium cynomolgi infected Rhesus monkeys (Macaca mulatta) at 1.0 mg/kg; cured 1 of 2
Mus musculus [49] = experiment: Antimalarial activity against Plasmodium berghei in mice (Mus musculus) at a dose of 160 mg/kg and activity expressed as toxic deaths on days 2-5
Mus musculus [50] = experiment: Mean survival time of mice(Plasmodium berghei) at a dose of 80 mg/kg, total no. of mice = 5
Mus musculus [51] = experiment: Antimalarial activity against Plasmodium berghei in mice (Mus musculus) at a dose of 320 mg/kg and activity expressed as toxic deaths on days 2-5
Plasmodium cynomolgi [52] = experiment: Antimalarial activity against Plasmodium cynomolgi infected Rhesus monkeys (Macaca mulatta) at 0.1 mg/kg; relapses in 2 of 2
Mus musculus [53] = experiment: Antimalarial activity against Plasmodium berghei yoelii in mice (Mus musculus) at a dose of 160 mg/kg administered by subcutaneous and activity expressed as cures; 2/25
Mus musculus [54] = experiment: Antimalarial activity against Plasmodium berghei yoelii in mice (Mus musculus) at a dose of 10 mg/kg administered subcutaneously and activity expressed as cures; 6/25; details: route subcutaneous
Mus musculus [55] = experiment: Antimalarial activity against Plasmodium berghei yoelii in mice (Mus musculus) at a dose of 40 mg/kg administered subcutaneously and activity expressed as cures; 5/25; details: route subcutaneous

COc1cc(NC(C)CCCN)c2nccc(C(OC)OC)c2c1Oc1cccc(C(F)(F)F)c1 (stereo unspecified)
Delta MST (Mus musculus [1]): 8.5 | Relapses (Plasmodium cynomolgi [2]): 24 and 44 | Delta MST (Mus musculus [3]): 1.9 | Cures (Mus musculus [4]): 4 | Cures (Mus musculus [5]): 12 | Delta MST (Mus musculus [6]): 5.5 | Cures (Mus musculus [7]): 3 | Cures (Mus musculus [8]): 1 | Cures (Mus musculus [9]): 0 | Toxic (Mus musculus [10]): 5 | Delta MST (Mus musculus [11]): 2.5 | Cures (Mus musculus [12]): 9 | Cures (Plasmodium cynomolgi [13]): 0 | Cures (Mus musculus [14]): 10 | Cures (Mus musculus [15]): 2 | Cures (Mus musculus [16]): 0 | Cures (Mus musculus [17]): 0

C=Cc1ccnc2c(NC(C)CCCN)cc(OC)c(Oc3cccc(C(F)(F)F)c3)c12 (stereo unspecified)
Delta MST (Mus musculus [1]): -0.1 | Relapses (Plasmodium cynomolgi [2]): 12 and 19 | Delta MST (Mus musculus [18]): 3.7 | Delta MST (Mus musculus [19]): 8.1 | Cures (Plasmodium cynomolgi [13]): 0

COCc1ccnc2c(NC(C)CCCN)cc(OC)c(Oc3cccc(C(F)(F)F)c3)c12 (stereo unspecified)
Delta MST (Mus musculus [3]): 2.8 | Cures (Mus musculus [4]): 4 | Cures (Plasmodium cynomolgi [20]): 1 | Cures (Mus musculus [21]): 9 | Cures (Mus musculus [7]): 4 | Cures (Mus musculus [22]): 8 | Relapses (Plasmodium cynomolgi [23]): 8 | Cures (Mus musculus [24]): 1 | Cures (Plasmodium cynomolgi [25]): 0 | Cures (Mus musculus [26]): 5 | Cures (Mus musculus [8]): 5 | Cures (Mus musculus [27]): 1 | Delta MST (Mus musculus [11]): 6.6 | Relapses (Plasmodium cynomolgi [28]): 28 | Cures (Mus musculus [29]): 2 | Cures (Mus musculus [15]): 4 | Cures (Mus musculus [30]): 5 | Cures (Mus musculus [31]): 5 | Cures (Mus musculus [16]): 0 | Cures (Plasmodium cynomolgi [32]): 2

COc1cc(NC(C)CCCN)c2nccc(C)c2c1Oc1cccc(C(F)(F)F)c1 (stereo unspecified)
Cures (Plasmodium cynomolgi [33]): 0 | Cures (Mus musculus [7]): 5 | Toxic (Mus musculus [10]): 4 | Cures (Mus musculus [27]): 5 | Cures (Plasmodium cynomolgi [34]): 2 | Cures (Mus musculus [29]): 1 | Cures (Mus musculus [30]): 5 | Cures (Plasmodium cynomolgi [32]): 2

COc1cc(NC(C)CCCN)c2nccc(CO)c2c1Oc1cccc(C(F)(F)F)c1 (stereo unspecified)
Toxic (Mus musculus [35]): 2 | Delta MST (Mus musculus [1]): 3.8 | Delta MST (Mus musculus [18]): 14.8 | Cures (Mus musculus [36]): 0 | Delta MST (Mus musculus [3]): 0.6 | Cures (Mus musculus [37]): 3 | Delta MST (Mus musculus [6]): 3.6 | Cures (Mus musculus [8]): 1 | Delta MST (Mus musculus [38]): 13.1 | Delta MST (Mus musculus [11]): 1.4 | Cures (Plasmodium cynomolgi [39]): 0 | Toxic (Mus musculus [40]): 4 | Cures (Mus musculus [41]): 3 | Cures (Mus musculus [42]): 14 | Cures (Mus musculus [43]): 10 | Cures (Mus musculus [44]): 10 | Cures (Mus musculus [45]): 3 | Toxic (Mus musculus [46]): 7

COc1cc(NC(C)CCCN)c2ncccc2c1 (stereo unspecified) [PRIMAQUINE]
Cures (Plasmodium cynomolgi [47]): 0 | Cures (Plasmodium cynomolgi [25]): 0 | Cures (Plasmodium cynomolgi [48]): 1

COc1cc(NC(C)CCCN)c2ncccc2c1.O=P(O)(O)O.O=P(O)(O)O (stereo unspecified) [PRIMAQUINE PHOSPHATE]
Toxic (Mus musculus [49]): 2 | Delta MST (Mus musculus [50]): 9 | Toxic (Mus musculus [10]): 5 | Toxic (Mus musculus [51]): 5

CCc1ccnc2c(NC(C)CCCN)cc(OC)c(Oc3cccc(C(F)(F)F)c3)c12 (stereo unspecified)
Toxic (Mus musculus [49]): 3 | Relapses (Plasmodium cynomolgi [52]): 20 | Delta MST (Mus musculus [3]): 1.7 | Cures (Mus musculus [53]): 2 | Cures (Mus musculus [7]): 5 | Cures (Plasmodium cynomolgi [25]): 0 | Cures (Mus musculus [54]): 6 | Cures (Mus musculus [8]): 4 | Cures (Mus musculus [27]): 3 | Delta MST (Mus musculus [11]): 5.3 | Cures (Plasmodium cynomolgi [34]): 2 | Cures (Mus musculus [29]): 1 | Cures (Mus musculus [15]): 5 | Cures (Mus musculus [30]): 4 | Cures (Plasmodium cynomolgi [32]): 2 | Cures (Mus musculus [55]): 5
